Patent US20140356393A1, “COMPOSITION FOR TREATMENT OR PREVENTION OF HYPERLIPIDEMIA, CONTAINING WATER EXTRACTS OF LAETIPORUS SULPHUREUS” (POSTECH ACADEMY-INDUSTRY FOUNDATION, priority 2011, published 2014)

Legend:
[1] = tested on: lipid absorption; experiment: Amount of triglyceride (lipid) absorption from the digestive tract into blood; type: in vivo; details: male Balb/c mouse, oral 14C-triolein, plasma radioactivity 6 hours after administration, relative to control = 1; FIG. 4
Procedure: Triolein (Amersham, 100 μCi/mL) radiolabeled with ^14C was mixed with 1% (w/v) sodium carboxylmethyl cellulose (CMC-Na) and 1% (v/v) Tween 80, and then 0.1 mL of the mixture was forcibly administered into each mouse through an oral zonde so that 1 μCi could be delivered to each mouse. Here, the mouse in the control group (an 8-week old male Balb/c with body weight of 25 g) was treated with 400 μg of Orlistat (20 mg/kg), which is used as an obesity treatment, and the mouse in the experimental group (an 8-week old male Balb/c with body weight of 25 g) was treated with 0.5 mL of the water extract (50 mg/mL) of Laetiporus sulphureus prepared in the Example after concentrating it into 0.1 mL. Six hours after the administration, blood samples were collected from the mice, and plasma was obtained by centrifuging the blood at 40° C. at the rate of 14000 rpm, and the radioactive dose was measured by a liquid scintillator (Beta counter, Beckman LS1801). The control group was not treated with anything. The amount of lipid absorption was determined as a relative value by dividing the radioactive dose of each group into the radioactive dose of the control group, in which the radioactive dose of the control group was set at ‘1’.

[2] = tested on: cholesterol absorption; experiment: Amount of cholesterol absorption from the digestive tract into blood; type: in vivo; details: male Balb/c mouse, oral 3H-cholesterol oleate, plasma radioactivity 6 hours after administration, relative to control = 1; FIG. 3
Procedure: Cholesterol oleate (Amersham, 100 μCi/mL) radiolabeled with ^3H was mixed with 1% (w/v) sodium carboxylmethyl cellulose (CMC-Na), 1% (v/v) Tween 80, and a non-labeled cholesterol oleate, and then 0.1 mL of the mixture was forcibly administered into each mouse through an oral zonde so that 1 μCi could be delivered to each mouse. Here, the mouse in the control group (an 8-week old male Balb/c with body weight of 25 g) was treated with 400 μg of Orlistat (20 mg/kg), which has an inhibitory effect against cholesterol absorption, and the mouse in the experimental group (an 8-week old male Balb/c with body weight of 25 g) was treated with […] of Laetiporus sulphureus prepared in the Example after concentrating it into 0.1 mL. Six hours after the administration, blood samples were collected from the mice, and plasma was obtained by centrifuging the blood at 40° C. at the rate of 14000 rpm, and the radioactive dose was measured by a liquid scintillator (Beta counter, Beckman LS1801). The Control group was not treated with anything that may inhibit the absorption of cholesterol. The amount of cholesterol absorption was determined as a relative value by dividing the radioactive dose of each group into the radioactive dose of the control group, in which the radioactive dose of the control group was set at ‘1’.

Structure (SMILES): CCCCCCCCCCC[C@@H](C[C@@H]1OC(=O)[C@H]1CCCCCC)OC(=O)[C@H](CC(C)C)NC=O [Orlistat]
- inhibitory effect upon lipid absorption [1]: significant inhibitory effect
- inhibitory effect upon cholesterol absorption [2]: significant inhibitory effect
